According to US20040086949A1, “Method for preparing a ligand presenting assembly (LPA), an LPA and uses thereof” (Statens Serum Institut, priority 1998, published 2004):
Ends that are not written are not given here.

Key:
[1] = system: C-terminal B-cell epitope of OspC; experiment: Immunogenicity of LPA-VI in mice, serum Ig ELISA against recombinant OspC and LPA-I; format: in vivo; conditions: five female C57 black mice, 5 μg i.p. on days 0 and 14 with Al(OH)3 and Freund's incomplete adjuvant, sera diluted 200 fold
Procedure: The capability of an LPA according to the present invention to induce a humoral immune response was studied by immunising mice with LPA-VI. Five female C57 black mice (age 6 to 8 weeks) were immunised two times intraperitoneally with a 2-week interval and were bled on days 0, 14, and 28. Each immunisation dose contained. 5 μg of LPA-VI dissolved in 0.25 ml 0.9% NaCl and supplemented with 1 mg Al(OH)3 (Superfos Biosector, Denmark) and 0.25 ml Freund's incomplete adjuvant. The serum samples were diluted 200 fold and then tested by ELISA for Ig reactivity against OspC produced on recombinant form (WO 97/42221) and LPA-I (FIG. 8).
FIG. 8. Mean ELISA titer of sera from five mice immunised with LPA-VI on days 0 and 14. The microdilution plates were coated with LPA-I (diamond) or recombinant OspC (Squares), and the sera were analysed in a 200-fold dilution.

[2] = system: IgM antibodies in sera from patients with neuroborreliosis; experiment: Indirect IgM-ELISA with LPA-I or biotinylated-pepC10 as coated antigen; format: binding, human; conditions: NB sera (n = 97), sera diluted 1/200, 98% specific cut-off
Procedure: The capability of LPA-I according to the present invention to react with sera from patients with neuroborreliosis was evaluated against that of an ELISA based on biotinylated-pepC10, wherein pepC10 is identical to the amino acid sequence of Seq. ID 1.
Preparing plates for the LPA-I-ELISA: Microtiter plates (Maxisorb; Nunc, Roskilde, Denmark) were coated overnight at 4° C. with 0.6 μg/ml of LPA-I diluted in 0.05 M bicarbonate pH 9.6, blocked with 3% (w/v) milk powder in phosphate-buffered saline (PBS) for 1 h, and reacted with sera diluted 1/200 in 1% (w/v) milk powder in PBS containing 0.05% Tween 20 (PBST) and 0.7 M NaCl for 2 h. The secondary antibody was a peroxidase conjugated rabbit anti-human IgM (Dako, Denmark, codes P-215) diluted 1/1000 in 1% (w/v) milk powder in PBST. After 1 h of incubation, bound secondary antibody was quantitated by colouring with o-phenylenediamine and H2O2 in citrate buffer (Sigma, St. Louis, Mo.) for 30 min. Optical density (OD) at 492 nm was determined in a plate reader (EAR 400 AC-SLT, Labinstruments, Austria). Plates were washed extensively with PBST-0.5M NaCl between each incubation step. The 98% specific diagnostic cut-off level was OD of 0.270 for IgM detection.
Preparing plates for the biotinylated-pepC10-ELISA: ELISAs with biotinylated-pepC10, were performed essentially as described above for LPA-I, except that microtiter plates were first coated with streptavidin (2.5 μg/ml) (Zymed, S. Avidinii) in citrate buffer (pH 5) overnight at 4° C., and then incubated with biotinylated pepC10 (0.1 μg/ml) in 1% (w/v) milk powder in PBST-0.37 M NaCl overnight at 4° C.
(i) Sera from 97 Danish patients with neuroborreliosis (NB). All patients had been hospitalised in 1994 ([…] between 4 and 80 years of age; median age, 49). The selection was based on a positive test for B. burgdorferi specific intrathecal antibody synthesis. The diagnosis was further corroborated by the presence of lymphocytic pleocytosis in CSF (median cell count, 124/μl) and one of the following manifestations: lymphocytic meningoradiculitis with typical painful radiculitis, mononeuritis multiplex (Bannwarth's syndrome), radiculomyelitis, monosymptomatic fascialis paresis (all children), subacute lymphocytic meningitis, and chronic progressive encephalomyelitis. Of the 100 patients, 48 recalled a previous EM-like skin lesion. Disease duration, defined as the time from onset of neurological symptoms until diagnostic blood and CSF samples were taken, ranged from 1 week to 26 weeks (median duration, 3 weeks).
Sera from 80 healthy controls were used for determination of the 98%-specific cut-off level in ELISAs.

Row | Substance | induction of antibodies against the C-terminal B-cell epitope of OspC [1] | % of IgM reactive sera (frequency of positive Lyme borreliosis sera) [2] | No. of IgM reactive sera [2]
1 | (HO-ProLysLysProSerGluAlaValValPro-COCH2)2N-Lys(AlaSerAlaAlaAlaGluIleGlyAlaPheAsnTrpGlnGlnGluThrMet-H)2 [LPA-VI] | highly effective in inducing antibodies |  | 
2 | biotinylated-pepC10: biotinylated peptide; pepC10 is identical to the amino acid sequence of Seq. ID 1 (ProValValAlaGluSerProLysLysPro), bound to streptavidin-coated plates (PVVAESPKKP; also: biotinylated, place not given here) [reference compound] |  | 43.3% | 42
3 | FmocN(CH2CO-ProValValAlaGluSerProLysLysPro-OH)2 [LPA-I] |  | 42.3% | 41
